Measured values as given in PMC5884906, “Single Administration of HBK-15—a Triple 5-HT1A, 5-HT7, and 5-HT3 Receptor Antagonist—Reverses Depressive-Like Behaviors in Mouse Model of Depression Induced by Corticosterone” (Molecular Neurobiology, 2017).
Values joined by “and” are separate entries in the source; they are usually repeats but may differ in a detail not shown here. Equal values may be shown once.

Legend:
[1] = test system: corticosterone-treated mice; assay: sucrose preference test, chronic administration, corticosterone model; format: in vivo; conditions: for effect on corticosterone-induced decrease in sucrose intake: 21 days
Method: The dose and route of administration of corticosterone was based on studies performed by Zhao and colleagues. Thirty minutes before, corticosterone injection mice were given (i.p.) saline, HBK-14 (1.25 or 2.5 mg/kg), HBK-15 (0.625 or 1.25 mg/kg), or fluoxetine (10 mg/kg) (Fig. 1b). Control mice received (i.p.) saline and 30 min later saline containing 0.1% dimethyl sulfoxide (DMSO) and 0.1% Tween-80 (s.c.). The experimental groups consisted of eight randomly selected animals. After the end of the procedure, animals were tested in the sucrose preference test, forced swim test, elevated plus maze test, and spontaneous locomotor activity test. Following behavioral testing, rodents were scarified and their hippocampi collected for biochemical analysis. The sucrose preference test was conducted according to the slightly modified methods described by Liu and colleagues and Filho and colleagues. The test was performed before and after the administration of corticosterone. Briefly, before the proper test, mice were housed singly and given 72 h training to acclimate to the test procedures. In the first 24 h, access ad libitum to two feeding bottles of 1% (w/v) sucrose solution was given to each mouse. After 24 h, one bottle was replaced with tap water for the next 24 h. Then, mice were deprived of water and food for the third 24 h. On the test day, the weight of each bottle (1% sucrose solution and tap water) was recorded. Test animals were then given the bottles of 1% sucrose and water for 24 h. The consumed liquid weight was measured based on the weight of each bottle of fluids after sucrose preference test minus the original starting weight. The percentage of sucrose intake was calculated using the following equation: %Sucrose intake=Sucrose intake/Sucrose intake+water intake⋅100%

[2] = test system: corticosterone-treated mice; assay: forced swim test, chronic administration, corticosterone model; format: in vivo; conditions: for effect on corticosterone-induced increase in immobility: 21 days
Method: The dose and route of administration of corticosterone was based on studies performed by Zhao and colleagues. Thirty minutes before, corticosterone injection mice were given (i.p.) saline, HBK-14 (1.25 or 2.5 mg/kg), HBK-15 (0.625 or 1.25 mg/kg), or fluoxetine (10 mg/kg) (Fig. 1b). Control mice received (i.p.) saline and 30 min later saline containing 0.1% dimethyl sulfoxide (DMSO) and 0.1% Tween-80 (s.c.). The experimental groups consisted of eight randomly selected animals. After the end of the procedure, animals were tested in the sucrose preference test, forced swim test, elevated plus maze test, and spontaneous locomotor activity test. Following behavioral testing, rodents were scarified and their hippocampi collected for biochemical analysis. Forced swim test was performed according to the method described by Porsolt and colleagues and previously described. Mice were placed individually for 6 min in glass cylinders (height 25 cm, diameter 10 cm) containing […] (23–25 °C). The total time of immobility was recorded during the final 4 min of the test. The experiments were recorded and scored using aLab.io software by a trained observer blind to the treatments.

[3] = test system: BDNF level in the hippocampus; assay: BDNF level in the hippocampus (ELISA), chronic administration; format: in vivo, mice; conditions: for effect on corticosterone-induced decrease in BDNF level in the hippocampus: 21 days
Method: (§1) The doses and route of administration of the studied compounds were based on our previous experiments. […] Mice were injected with corticosterone (s.c., 20 mg/kg) at random times during the light phase for 21 consecutive days (Fig. 1b). The dose and route of administration of corticosterone was based on studies performed by Zhao and colleagues. Thirty minutes before, corticosterone injection mice were given (i.p.) saline, HBK-14 (1.25 or 2.5 mg/kg), HBK-15 (0.625 or 1.25 mg/kg), or fluoxetine (10 mg/kg) (Fig. 1b). Control mice received (i.p.) saline and 30 min later saline containing 0.1% dimethyl sulfoxide (DMSO) and 0.1% Tween-80 (s.c.). The experimental groups consisted of eight randomly selected animals. After the end of the procedure, animals were tested in the sucrose preference test, forced swim test, elevated plus maze test, and spontaneous locomotor activity test. Following behavioral testing, rodents were scarified and their hippocampi collected for biochemical analysis. After the behavioral assessments, mice were sacrificed, and their brains were rapidly removed and chilled in an ice-cold saline solution. The hippocampi were dissected on a cold plate, frozen, and stored at −80 °C until assay. On the day of experiments, tissues were thawed on ice and homogenized (1:9 w/v) in phosphate-buffered saline (4 °C) and protease inhibitor cocktail was added. The 10% homogenates were prepared and homogenized for 30 s with TissueRuptor homogenizer. The homogenized tissues were centrifuged (2500×g at 4 °C for 20 min), and the supernatants were collected for further assays. Protein concentrations of BDNF and NGF in homogenates from hippocampi were determined using the enzyme-linked immunosorbent assay (ELISA) kits (BDNF: DZE201020014, SunRed Biotechnology Company; NGF: MBS825100, MyBioSource) according to the manufacturer’s instructions. […] The samples were analyzed in duplicates, and the mean concentrations were calculated. […] The intensity of the color was read at 450 nm. Absorbance was measured in a multifunction plate reader (POLARstar Omega, BMG Labtech, Germany). […]

[4] = test system: NGF level in the hippocampus; assay: NGF level in the hippocampus (ELISA), chronic administration; format: in vivo, mice; conditions: for effect on corticosterone-induced decrease in NGF level in the hippocampus: 21 days
Method: as §1

[5] = test system: corticosterone-treated mice; assay: spontaneous locomotor activity, single administration; format: in vivo; conditions: 4 min
Method: Mice were injected with corticosterone (s.c., 20 mg/kg) at random times during the light phase for consecutive 21 days (Fig. 1c). The dose and route of administration of corticosterone were based on studies performed by Zhao and colleagues. […] Control mice received (i.p.) saline. The experimental groups consisted of eight randomly selected animals. We chose the dose of HBK-15 that was active in the chronic experiments (i.e., 1.25 mg/kg). The dose of ketamine was based on the studies performed by Pazini and colleagues. Animals were tested in the forced swim test and spontaneous locomotor activity test. After behavioral testing, mice were scarified and their hippocampi collected for biochemical analysis.
The locomotor activity was performed as previously described. Locomotor activity was recorded individually for each mouse using activity cages made of clear Perspex (40 cm × 40 cm × 31 cm, Activity Cage 7441, Ugo Basile, Italy). The cages were supplied with I.R. horizontal beam emitters connected to a counter for the recording of light-beam interruptions. Each mouse was placed in a cage for a 30-min habituation period. After that time, the number of crossings of photobeams was measured for 6 min (chronic studies) or for 4 min (acute experiments; i.e., the time equal to the observation period in the forced swim test). The cages were disinfected with 70% ethanol after each mouse.

[6] = corticosterone 20 mg/kg s.c. 21 days + saline

CNCCC(Oc1ccc(C(F)(F)F)cc1)c1ccccc1 (centres unmarked) [fluoxetine, reference compound]
effect on corticosterone-induced decrease in sucrose intake ([1]; 10 mg/kg i.p.): prevented the decrease in sucrose intake | effect on corticosterone-induced increase in immobility ([2]; 10 mg/kg i.p.): prevented an increase in immobility | effect on corticosterone-induced decrease in BDNF level in the hippocampus ([3]; 10 mg/kg i.p.): protected corticosterone-treated mice from the decrease in the BDNF level | effect on corticosterone-induced decrease in NGF level in the hippocampus ([4]; 10 mg/kg i.p.): protected corticosterone-treated mice from the decrease in the NGF level | Number of crossings ± S.E.M ([5]; single i.p. in corticosterone-treated mice): 231.9 ± 21.9

COc1ccccc1N1CCN(CCOCCOc2c(C)cccc2Cl)CC1.Cl [HBK-15, 1-[(2-chloro-6-methylphenoxy)ethoxyethyl]-4-(2-methoxyphenyl)piperazine hydrochloride]
effect on corticosterone-induced decrease in sucrose intake ([1]; 1.25 mg/kg i.p.): prevented the decrease in sucrose intake | effect on corticosterone-induced increase in immobility ([2]; 1.25 mg/kg i.p.): prevented an increase in immobility | effect on corticosterone-induced decrease in BDNF level in the hippocampus ([3]; 1.25 mg/kg i.p.): protected corticosterone-treated mice from the decrease in the BDNF level | effect on corticosterone-induced decrease in NGF level in the hippocampus ([4]; 1.25 mg/kg i.p.): protected corticosterone-treated mice from the decrease in the NGF level | Number of crossings ± S.E.M ([5]; single 1.25 mg/kg i.p. in corticosterone-treated mice): 245.3 ± 22.5

C[C@]12C[C@H](O)[C@H]3[C@@H](CCC4=CC(=O)CC[C@@]43C)[C@@H]1CC[C@@H]2C(=O)CO [corticosterone]
decrease in percentage intake of sucrose solution vs control [1, 6]: 17% and 21% | increase in immobility vs control [2, 6]: 14% and 21% | decrease in BDNF level in the hippocampus vs control [3, 6]: 44.0% | decrease in NGF level in the hippocampus vs control [4, 6]: 35% | Number of crossings ± S.E.M [5, 6]: 230.7 ± 15.8

COc1ccccc1N1CCN(CCOCCOc2c(C)cccc2C)CC1.Cl [HBK-14, 1-[(2,6-Dimethylphenoxy)ethoxyethyl]-4-(2-methoxyphenyl)piperazine hydrochloride]
effect on corticosterone-induced decrease in sucrose intake ([1]; 1.25 or 2.5 mg/kg i.p.): inactive | effect on corticosterone-induced increase in immobility ([2]; 1.25 or 2.5 mg/kg i.p.): inactive
